# Source: patent US9447044B2, “Thioaryl derivatives as GPR120 agonists” (LG LIFE SCIENCES LTD., priority 2012, dated 2016)
# Target: T1, hGPR120 (Homo sapiens, UniProt Q5NUL3)
# T1 construct: expressed in transfected cells; host or cells: CHO-K1
# T1 sequence (Q5NUL3 1-361): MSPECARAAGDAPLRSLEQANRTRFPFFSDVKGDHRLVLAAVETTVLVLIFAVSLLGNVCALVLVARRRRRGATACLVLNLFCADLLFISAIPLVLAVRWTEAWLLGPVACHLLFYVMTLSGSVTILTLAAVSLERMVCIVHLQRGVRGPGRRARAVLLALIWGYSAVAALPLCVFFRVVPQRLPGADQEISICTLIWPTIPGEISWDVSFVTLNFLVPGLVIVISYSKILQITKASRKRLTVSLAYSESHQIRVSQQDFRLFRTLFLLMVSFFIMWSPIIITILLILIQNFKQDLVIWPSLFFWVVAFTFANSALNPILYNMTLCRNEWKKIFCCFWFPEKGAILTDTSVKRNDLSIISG
# Test: Measurement of activity of GPR120 agonist (cell-based assay), calcium fluorescence
# Conditions: CHO-K1 cells expressing Ga16 and hGPR120; Calcium 5 dye fluorescence; activity class
# Protocol: CHO-K1 cells expressing Ga16 and hGPR120 were dispensed into each well of a 96-well plate (3×10^4 cells/100 μl/well) and then incubated in 5% CO2, 37° C. incubator for 18 hours. Each well was treated with 100 μl of Calcium 5 dye (Molecular Devices) solution including 2% DMSO and then incubated in 5% CO2, 37° C. incubator for 1 hour. Serially diluted GPR120 agonists were prepared to a final concentration of 0.5% DMSO in a 96-well plate. Each well was treated with 50 μl of the agonist compounds using Plexstation II, and then fluorescence was measured at Ex 485 nm, Em 525 nm.
# Fluorescence increased by the serially diluted GPR120 agonists is calculated as a relative percent (%) value based on the fluorescence represented by the treatment of 0.1% DMSO only. […] The calculation of measurement was carried out by using statistical software (Prizm).
# Activity is denoted based on the following criteria: A=>20 μM, B=[…], C=2˜0.2 μM, D=<0.2 μM
row,EC50 [nM],SMILES
1,200 to 2000,"O=C(O)CCc1cc(F)c(OCc2cccnc2SCC(F)(F)F)c(F)c1 [Example 18, 3-{3,5-difluoro-4-[2-(2,2,2-trifluoro-ethylsulfanyl)-pyridin-3-ylmethoxy]-phenyl}-propionic acid]"
2,< 200,"CCC(C)Sc1ncccc1COc1c(F)cc(CCC(=O)O)cc1F (centres unmarked) [Example 19, 3-[4-(2-sec-butylsulfanyl-pyridin-3-ylmethoxy)-3,5-difluoro-phenyl]-propionic acid]"
3,200 to 2000,"CC(C)Sc1nccnc1COc1c(F)cc(CCC(=O)O)cc1F [Example 20, 3-[3,5-difluoro-4-(3-isopropylsulfanyl-pyrazin-2-ylmethoxy)-phenyl]-propionic acid]"
4,200 to 2000,"O=C(O)CCc1cc(F)c(OCc2cccnc2SC2CCCCC2)c(F)c1 [Example 22, 3-[4-(2-cyclohexylsulfanyl-pyridin-3-ylmethoxy)-3,5-difluoro-phenyl]-propionic acid]"
5,< 200,"O=C(O)CCc1cc(F)c(OCc2cccnc2SC2CCC2)c(F)c1 [Example 23, 3-[4-(2-cyclobutylsulfanyl-pyridin-3-ylmethoxy)-3,5-difluoro-phenyl]-propionic acid]"
6,200 to 2000,"CC(C)Sc1nccc(COc2c(F)cc(CCC(=O)O)cc2F)n1 [Example 24, 3-[3,5-difluoro-4-(2-isopropylsulfanyl-pyrimidin-4-ylmethoxy)-phenyl]-propionic acid]"
7,< 200,"CC(Cc1ccc(OCc2cccnc2SC2CCCC2)cc1)C(=O)O (centres unmarked) [Example 25, 3-[4-(2-cyclopentylsulfanyl-pyridin-3-ylmethoxy)-phenyl]-2-methyl-propionic acid]"
8,< 200,"CCCCSc1ncccc1COc1c(F)cc(CCC(=O)O)cc1F [Example 26, 3-[4-(2-butylsulfanyl-pyridin-3-ylmethoxy)-3,5-difluoro-phenyl]-propionic acid]"
9,200 to 2000,"O=C(O)CCc1cc(F)c(OCc2cccnc2SCCC(F)(F)F)c(F)c1 [Example 27, 3-{3,5-difluoro-4-[2-(3,3,3-trifluoro-propylsulfanyl)-pyridin-3-ylmethoxy]-phenyl}-propionic acid]"
10,200 to 2000,"CC(C)(C)CSc1ncccc1COc1c(F)cc(CCC(=O)O)cc1F [Example 28, 3-{4-[2-(2,2-dimethyl-propylsulfanyl)-pyridin-3-ylmethoxy]-3,5-difluoro-phenyl}-propionic acid]"
11,< 200,O=C(O)CCc1ccc(OCc2cccc(SC3CCCC3)n2)cc1 [Example 29]
12,< 200,O=C(O)CCc1cc(F)c(OCc2cccc(SC3CCCC3)n2)c(F)c1 [Example 30]
13,< 200,O=C(O)CCc1cc(F)c(OCc2cccc(SC3CCCCC3)n2)c(F)c1 [Example 31]
14,200 to 2000,CCc1ccc(COc2c(F)cc(CCC(=O)O)cc2F)c(SC(C)C)n1 [Example 32]
15,< 200,"CC(C)Sc1cccc(COc2c(F)cc(CCC(=O)O)cc2F)n1 [Example 33, 3-[3,5-difluoro-4-(6-isopropylsulfanyl-pyridin-2-ylmethoxy)-phenyl]-propionic acid]"
16,< 200,"CCC(C)Sc1cccc(COc2c(F)cc(CCC(=O)O)cc2F)n1 (centres unmarked) [Example 34, 3-[4-(6-sec-butylsulfanyl-pyridin-2-ylmethoxy)-3,5-difluoro-phenyl]-propionic acid]"
17,< 200,"O=C(O)C1CC1c1cc(F)c(OCc2cccc(SC3CCCC3)n2)c(F)c1 (centres unmarked) [Example 35, 2-[4-(6-cyclopentylsulfanyl-pyridin-2-ylmethoxy)-3,5-difluoro-phenyl]-cyclopropane carboxylic acid]"
18,< 200,"O=C(O)C1CC1c1cc(F)c(OCc2cccnc2SC2CCC2)c(F)c1 (centres unmarked) [Example 36, 2-[4-(2-cyclobutylsulfanyl-pyridin-3-ylmethoxy)-3,5-difluoro-phenyl]-cyclopropane carboxylic acid]"
19,< 200,"CC(Cc1ccc(OCc2cccnc2SC2CCC2)c(F)c1)C(=O)O (centres unmarked) [Example 37, 3-[4-(2-cyclobutylsulfanyl-pyridin-3-ylmethoxy)-3-fluoro-phenyl]-2-methyl-propionic acid]"

row,EC50 [nM],SMILES
1,< 200,"CC(Cc1ccc(OCc2cccnc2SC2CCCC2)c(F)c1)C(=O)O (centres unmarked) [Example 38, 3-[4-(2-cyclopentylsulfanyl-pyridin-3-ylmethoxy)-3-fluoro-phenyl]-2-methyl-propionic acid]"
2,< 200,"CCC(C)Sc1ncccc1COc1ccc(CC(C)C(=O)O)cc1F (centres unmarked) [Example 39, 3-[4-(2-sec-butylsulfanyl-pyridin-3-ylmethoxy)-3-fluoro-phenyl]-2-methyl-propionic acid]"
3,< 200,"CC(Cc1ccc(OCc2cccnc2SCC2CC2)c(F)c1)C(=O)O (centres unmarked) [Example 40, 3-[4-(2-cyclopropylmethylsulfanyl-pyridin-3-ylmethoxy)-3-fluoro-phenyl]-2-methyl-propionic acid]"
4,< 200,"CC(C)Sc1ncccc1COc1c(F)cc(CC(C)C(=O)O)cc1F (centres unmarked) [Example 41, 3-[3,5-difluoro-4-(2-isopropylsulfanyl-pyridin-3-ylmethoxy)-phenyl]-2-methyl-propionic acid]"
5,200 to 2000,"CCC(C)Sc1ncccc1COc1c(F)cc(CC(C)C(=O)O)cc1F (centres unmarked) [Example 42, 3-[4-(2-sec-butylsulfanyl-pyridin-3-ylmethoxy)-3,5-difluoro-phenyl]-2-methyl-propionic acid]"
6,< 200,"COc1ccc(COc2c(F)cc(CCC(=O)O)cc2F)c(SC(C)C)n1 [Example 43, 3-[3,5-difluoro-4-(2-isopropylsulfanyl-6-methoxy-pyridin-3-ylmethoxy)-phenyl]-propionic acid]"
7,< 200,"CC(Cc1cc(F)c(OCc2cccc(SC3CCCC3)n2)c(F)c1)C(=O)O (centres unmarked) [Example 44, 3-[4-(6-cyclopentylsulfanyl-pyridin-2-ylmethoxy)-3,5-difluoro-phenyl]-2-methyl-propionic acid]"
8,< 200,"Cc1ccc(COc2c(F)cc(CCC(=O)O)cc2F)c(SC2CCCC2)n1 [Example 45, 3-[4-(2-cyclopentylsulfanyl-6-methyl-pyridin-3-ylmethoxy)-3,5-difluoro-phenyl]-propionic acid]"
9,< 200,"CC(Cc1cc(F)c(OCc2cccc(SC3CCC3)n2)c(F)c1)C(=O)O (centres unmarked) [Example 46, 3-[4-(6-cyclobutylsulfanyl-pyridin-2-ylmethoxy)-3,5-difluoro-phenyl]-2-methyl-propionic acid]"
10,< 200,"CC(Cc1cc(F)c(OCc2cccnc2SC2CCCC2)c(F)c1)C(=O)O (centres unmarked) [Example 47, 3-[4-(2-cyclopentylsulfanyl-pyridin-3-ylmethoxy)-3,5-difluoro-phenyl]-2-methyl-propionic acid]"
11,200 to 2000,"CCC(C)Sc1cccc(COc2c(F)cc(CC(C)C(=O)O)cc2F)n1 (centres unmarked) [Example 48, 3-[4-(6-sec-butylsulfanyl-pyridin-2-ylmethoxy)-3,5-difluoro-phenyl]-2-methyl-propionic acid]"
12,< 200,"CC(C)Sc1cccc(COc2c(F)cc(CC(C)C(=O)O)cc2F)n1 (centres unmarked) [Example 49, 3-[3,5-difluoro-4-(6-isopropylsulfanyl-pyridin-2-ylmethoxy)-phenyl]-2-methyl-propionic acid]"
13,< 200,"CC(Cc1cc(F)c(OCc2cccnc2SCC2CC2)c(F)c1)C(=O)O (centres unmarked) [Example 50, 3-[4-(2-cyclopropylmethylsulfanyl-pyridin-3-ylmethoxy)-3,5-difluoro-phenyl]-2-methyl-propionic acid]"
14,< 200,"CCCSc1ncccc1COc1c(F)cc(CC(C)C(=O)O)cc1F (centres unmarked) [Example 51, 3-[3,5-difluoro-4-(2-propylsulfanyl-pyridin-3-ylmethoxy)-phenyl]-2-methyl-propionic acid]"
15,< 200,"CC(C)Sc1cccc(COc2ccc(CC(C)C(=O)O)cc2F)n1 (centres unmarked) [Example 52, 3-[3-fluoro-4-(6-isopropylsulfanyl-pyridin-2-ylmethoxy)-phenyl]-2-methyl-propionic acid]"
16,200 to 2000,"CCC(C)Sc1cccc(COc2ccc(CC(C)C(=O)O)cc2F)n1 (centres unmarked) [Example 53, 3-[4-(6-sec-butylsulfanyl-pyridin-2-ylmethoxy)-3-fluoro-phenyl]-2-methyl-propionic acid]"
17,< 200,"CC(Cc1ccc(OCc2cccc(SC3CCCC3)n2)c(F)c1)C(=O)O (centres unmarked) [Example 54, 3-[4-(6-cyclopentylsulfanyl-pyridin-2-ylmethoxy)-3-fluoro-phenyl]-2-methyl-propionic acid]"
18,< 200,"CC(Cc1ccc(OCc2cccc(SC3CCC3)n2)c(F)c1)C(=O)O (centres unmarked) [Example 55, 3-[4-(6-cyclobutylsulfanyl-pyridin-2-ylmethoxy)-3-fluoro-phenyl]-2-methyl-propionic acid]"

# Same assay, conditions: CHO-K1 cells expressing Ga16 and hGPR120; Calcium 5 dye fluorescence; numeric value
row,EC50 [nM],SMILES
1,68,"O=C(O)CCCc1ccc(OCc2cccnc2SC2CCCC2)cc1 [Example 21, 4-[4-(2-cyclopentylsulfanyl-pyridin-3-ylmethoxy)-phenyl]-butyric acid]"
